We go through five compounds from US8969573B2, “Compounds for the inhibition of cellular proliferation” (President and Fellows of Harvard College, priority 2010, dated 2015).

The target in one assay is eIF4E (Homo sapiens, UniProt P06730). Nature of the assay: NMR binding experiments (titration with protein).
A further assay addresses eIF4E/eIF4G interaction (Homo sapiens, UniProt P06730). Nature of the assay: Fluorescent polarization assay. The format is binding. To be noted: FITC eIF4G peptide and recombinant eIF4E, ratio to Z (4EGI-1 = 1). On the procedure: The difference between the two measurement yields net polarization which is considered full signal of the assay (100% control). […] The activity of compound at each concentration is determined by comparing the fluorescent polarization (FP) signal in the presence of compound to the control (no compound) value. The percent inhibition is =100-((FP compound/FP control)*100).

In the next assay the test system is CRL2813 human melanoma. Nature of the assay: SRB assay (inhibition of cell proliferation). To be noted: Homo sapiens, CRL2813, CRL2813 human melanoma cells; summary table; read-out: IC50 [μM} CRL2813. It is filed as cell-based. In general terms: In SRB staining, fixed cells bind dye roughly in proportion to their protein.
For assay [1], the system named is CRL2351 human breast cancer. Nature of the assay: SRB assay (inhibition of cell proliferation). Conditions: Homo sapiens, CRL2351 human breast cancer cells; summary table; read-out: IC50 [μM} CRL2351. It is filed as cell-based.

Each structure is given as a SMILES string. Where only a bound is given, the exact number is not on record here.

Chain of eIF4E (P06730 27-217 limits assumed): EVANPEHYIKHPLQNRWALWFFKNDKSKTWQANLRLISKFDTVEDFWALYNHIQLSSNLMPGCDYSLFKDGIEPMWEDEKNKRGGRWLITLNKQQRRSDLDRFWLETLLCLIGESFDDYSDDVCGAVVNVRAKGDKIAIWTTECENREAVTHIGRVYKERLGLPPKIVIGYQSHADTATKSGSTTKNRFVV
Chain of eIF4E/eIF4G interaction (P06730 whole entry): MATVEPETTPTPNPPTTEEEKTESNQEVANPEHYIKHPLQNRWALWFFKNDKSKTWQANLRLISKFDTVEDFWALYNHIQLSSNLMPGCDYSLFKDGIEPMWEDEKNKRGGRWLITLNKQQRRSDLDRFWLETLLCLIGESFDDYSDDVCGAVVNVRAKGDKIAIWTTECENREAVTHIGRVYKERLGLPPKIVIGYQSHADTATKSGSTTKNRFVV

The IC50 is the concentration needed to halve the response being measured. On to `COc1ccc(-c2nc(NN=C(Cc3ccccc3[N+](=O)[O-])C(=O)O)sc2-c2ccc(-n3cc(CO)nn3)cc2)cc1` [KY-383, 2-{[5-[4-(4-hydroxymethyl-[1,2,3]triazol-1-yl)-phenyl]-4-(4-methoxy-phenyl)-thiazol-2-yl]-hydrazono}-3-(2-nitro-phenyl)-propionic acid], for which the IC50 is roughly 3 µM on eIF4E, 13 ± 3.6 µM in the assay with CRL2813 human melanoma and greater than 20 µM in assay [1]. Also, the “Fp (ratio to Z)” value at eIF4E/eIF4G interaction was 2.3.

Regarding `O=C(O)[C@H](Cc1ccccc1[N+](=O)[O-])Nc1nc(-c2ccc(Cl)c(Cl)c2)cs1` [KY-549], the IC50 on eIF4E is roughly 7 µM.

Regarding `O=C(O)C(Cc1ccccc1[N+](=O)[O-])NNc1nc(-c2ccc(Cl)c(Cl)c2)cs1` (stereo not shown) [KY-720], at eIF4E, the IC50 was roughly 4 µM.

Take `O=C(O)C(Cc1ccc(O)cc1)=NNc1nc(-c2cccc([N+](=O)[O-])c2)cs1` [KY-A6]: at eIF4E, the concentration for half-maximal inhibition (IC50) is roughly 5 µM.

Take `O=C(O)/C(Cc1c(Br)cccc1[N+](=O)[O-])=N/Nc1nc(-c2ccc(Cl)c(Cl)c2)cs1` [RYF-339F]: at eIF4E/eIF4G interaction, the “Fp (ratio to Z)” value is given as 2.0. In addition, the IC50 in the assay on CRL2813 human melanoma was 1 µM; in assay [1] it was less than 0.54 µM.
